Counter-ions that a name gives are not always drawn. Marks after values point to notes of the source that are not given here.
Tested on: scopolamine-induced impairment of passive avoidance response
Experiment: passive avoidance test, scopolamine-induced impairment
Format: in vivo, Male Sprague Dawley rats
Description: Male Sprague Dawley rats weighing 175-200 g were used. The animals were kept in a regulated environment (20 ± 1°C, 50-55% humidity and 12 hours light-dark cycle, light on at 7.00 a.m.) and maintained with standard pellet diet. The apparatus used for the passive avoidance test was composed of a dark compartment (30x30x30 cm) with a grid floor and a compartment (30x30x30 cm) illuminated from above by a 20 W daylight lamp, the 2 compartments being separated by a guillotine-type door (10x8 cm). Scrambled electric shocks were delivered to the grid floor by an isolated stimulator.
Rats were divided in groups of 10 animals. • a) Training: each rat was placed gently in the lighted compartment and 10 sec later the door was opened. As soon as the rat had moved into the dark compartment and the door had been shut, a 1.6 mA foot-shock was applied for 1 sec. The rat was immediately removed from the apparatus and returned to the home cage. • b) Retention: the retention test was carried out 24 hours later by an observer unaware of the given treatment. Each rat was placed into the lighted compartment again and the step-through latency was recorded. The test is stopped when the rat enters the dark compartment or when it fails to do so in […] 180 sec.

[1] = step-through latency in retention test 24 hours after training, test compound 0.03 mg/kg i.p. 15 min before scopolamine 0.75 mg/kg i.p., which was given 30 min before training, mean ± S.E.M, 10 animals, cut-off 180 sec

Which “LATENCY” value (rat, in vivo, ip, 0.75 mg/kg) does the source give for `CN1[C@@H]2C[C@@H](OC(=O)[C@H](CO)c3ccccc3)C[C@H]1[C@@H]1O[C@@H]12` [Scopolamine, scopolamine, reference compound] here?
The value was 66 ± 18.7 s.

What does the source list for `CN1[C@@H]2CC[C@H]1C[C@@H](NC(=O)n1c(=O)[nH]c3ccccc31)C2` [Compound 1, N-(endo-8-methyl-8-azabicyclo[3.2.1]oct-3-yl)-2,3-dihydro-2-oxo-1H-benzimidazole-1-carboxamide]?
LATENCY (step-through latency in retention test 24 hours after training, test compound 0.01 mg/kg i.p. 15 min before scopolamine 0.75 mg/kg i.p., which was given 30 min before training, mean ± S.E.M, 10 animals, cut-off 180 sec): 136 ± 16.0 s; LATENCY [1]: 109 ± 17.0 s

For `CCn1c(=O)n(C(=O)N[C@H]2C[C@H]3CC[C@@H](C2)N3C)c2ccccc21` [Compound 5, N-(endo-8-methyl-8-azabicyclo[3.2.1]oct.-3-yl)-2,3-dihydro-3-ethyl-2-oxo-1H-benzimidazole-1-carboxamide], which “LATENCY” value [1] is on record?
Its value is 113 ± 17.0 s.

`CC(C)n1c(=O)n(C(=O)N[C@H]2C[C@H]3CC[C@@H](C2)N3C)c2ccccc21` [Compound 6, N-(endo-8-methyl-8-azabicyclo[3.2.1]oct.-3-yl)-2,3-dihydro-3-(1-methyl)ethyl-2-oxo-1H-benzimidazole-1-carboxamide, hydrochloric acid salt] was tested. Which “LATENCY (SEC)” value [1] did it give?
The value was 140 + 16 ** SEC.

From patent publication EP0523013B1, “Use of benzimidazoline-2-oxo-1-carboxylic acid derivatives in the treatment of organic mental diseases” (BOEHRINGER INGELHEIM ITALIA S.p.A., priority 1991, dated 1993)
